± gives the expanded uncertainty stated by the source.
Details: Liquid; for mass density: 298.15 K, 101.33 kPa, Vibrating tube method

Row | SMILES | mass density | vapor or sublimation pressure (370.29 K) | vapor or sublimation pressure (414.53 K) | vapor or sublimation pressure (395.1 K)
1 | CCCO [propan-1-ol] | 804.269 ± 0.19 kg/m3 | 101.3 ± 3.4 kPa | – | –
2 | CCC(=O)O [propanoic acid] | 993.722 ± 0.3 kg/m3 | – | 101.3 ± 3.4 kPa | –
3 | CCCOC(=O)CC [propyl propanoate] | 881.619 ± 0.3 kg/m3 | – | – | 101.3 ± 1.7 kPa
